Source: patent US20150335671A1, “SMALL-MOLECULE BINDING SITE ON PRO-APOPTOTIC BAX REGULATES INHIBITION OF BAX ACTIVITY” (ALBERT EINSTEIN COLLEGE OF MEDICINE OF YESHIVA UNIVERSITY, priority 2013, published 2015)

Tests used:
BAX [1] = target: T1, BAX (Homo sapiens, UniProt Q07812); experiment: Liposome release assay (ANTS/DPX release by tBID-activated BAX); type: biochemical
Protocol: FIG. 3. Left: Kinetic trace of percent release of ANTS and DPX from liposomes in response to tBID activated BAX in the absence (blue) and presence of iMAC1 (green) and iMAC2 (Red). Right: Percent release after 20 minutes at different doses of iMAC1 (green), iMAC2 (red) and iMAC3 (blue). Each molecule was tested at 6, 3 and 1.5 μM, high to low doses are indicated by dark to light tones.
FIG. 18A-18B. […] B) Docked structure of […] within the novel BAX site.
iMAC1 and iMAC2 Inhibit BAX Activation in Liposome Release Assays: Liposomes containing the fluorophore, ANTS, and the quencher, DPX, were incubated with 200 nM BAX activated with 30 nM tBID resulting in BAX-mediated pore formation in the liposomal membrane and release of ANTS and DPX.

BAX [2] = target: T1, BAX; experiment: NMR chemical shift perturbation of 15N-BAX upon titration; type: binding
Source text: FIG. 4A-B. Measured chemical shift changes of 15N-BAX upon iMAC1 and iMAC2 titration up to a ratio of 1:4 BAX:iMAC are plotted as a function of BAX residue number. Residues with significant backbone amide chemical shift change are highlighted in orange. Highest significant chemical shift changes (twice the calculated significance threshold) are highlighted in red. […] Chemical shift changes in other regions of the structure are not localized and predominantly occur in hydrophobic residues at the hydrophobic core of the BAX structure. Regions that previously identified to be involved in regulating BAX activation are shown in violet shading (helix α1 and α6), teal shading (helix α2) and yellow shading (helix α9).
FIG. 13: Measured chemical shift changes of ^15N-BAX upon octyl glucoside detergent titration, below the detergent's CMC point, are plotted as a function of BAX residue number. Residues with significant backbone amide chemical shift change are highlighted in orange. Highest significant chemical shift changes (twice the calculated significance threshold) are highlighted in red.
Significant CSP mapped onto the surface and ribbon depictions of BAX (FIG. 5), the BAX trigger site (blue), the canonical BH3-binding site and a9 (green) are included for comparison. Affected residues are represented by the orange and red spheres in the ribbon diagram and by the orange and red bars in the plot (the calculated significance threshold is marked in orange and is equal to the average shift plus the standard deviation while values at double the threshold are marked in red).

oligomeric BAX = oligomeric BAX (Homo sapiens, UniProt Q07812); experiment: Ligand-observed NMR (chemical shift, STD, WATER LOGSY); type: binding; conditions: aromatic peaks of ligand observed
Sequence of oligomeric BAX (Q07812 whole entry): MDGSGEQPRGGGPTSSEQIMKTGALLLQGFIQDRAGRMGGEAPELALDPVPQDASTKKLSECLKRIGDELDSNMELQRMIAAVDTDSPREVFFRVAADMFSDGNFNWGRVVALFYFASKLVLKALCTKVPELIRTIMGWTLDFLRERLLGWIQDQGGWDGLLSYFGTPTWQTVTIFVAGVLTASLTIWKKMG
Source text: FIG. 22. iMACs bind to both monomer and oligomeric BAX.
iMACs Bind to Both Monomeric and Oligomeric BAX in vitro.

[3] = test system: mitochondrial apoptosis-induced channel; conditions: Peixoto et al. Biochem J. 2009; cited from earlier work
cardiac myocytes = experiment: Cardiac myocyte cell death under hypoxia / normoxia; type: cell-based
Source text: Accordingly, it can be seen that inhibitor compounds which bind to the novel BAX site can protect cardiac myocytes from cell death induced by hypoxia.

T1 sequence (Q07812 whole entry): as above

Structure (SMILES) | inhibition of tBID-induced BAX activation and BAX pore formation (release of ANTS and DPX from liposomes) (BAX [1]; 200 nM BAX, 30 nM tBID, tested at 6, 3 and 1.5 μM, release after 20 minutes) | region of chemical shift changes of 15N-BAX (BAX [2]; iMAC titration up to a ratio of 1:4 BAX:iMAC) | binding to oligomeric BAX (oligomeric BAX) | inhibition of cytochrome c release and mitochondrial apoptosis-induced channel activity [3] | inhibition of BAX activation and BAX-mediated pore formation in liposomal membranes (BAX [1]; concentrations well below the critical micelle concentration (CMC)) | region of chemical shift changes of 15N-BAX (BAX [2]; detergent titration below the detergent's CMC point) | binding to the novel BAX site by NMR analysis (BAX [2]; octyl glucoside titration, FIG. 13) | protection from cell death (cardiac myocytes; hypoxia, compared to vehicle (0.2% DMSO)) | effect on cardiac myocytes (cardiac myocytes; normoxia)
Cl.Cl.FC(CN1CCNCC1)Cn1c2ccc(Br)cc2c2cc(Br)ccc21 (stereo not shown) [iMAC2] | inhibit tBID-induced BAX activation and BAX pore formation | concentrated in the region formed by helices α3, α4, α5 and loop α3-α4 | binding to both oligomeric BAX | more potent inhibitors |  |  |  |  | 
CCCCCCCCO[C@@H]1O[C@H](CO)[C@@H](O)[C@H](O)[C@H]1O [n-octyl-3-D-glucoside] |  |  |  |  | inhibits BAX activation and BAX-mediated pore formation | concentrated in the region formed by helices α3, α4, α5, α6 and loop α3-α4 | binding to the novel site that regulates BAX inhibition |  | 
OC(CN1CCNCC1)Cn1c2ccc(Br)cc2c2cc(Br)ccc21 (stereo not shown) [iMAC1] |  |  |  | more potent inhibitors |  |  |  | protects cardiac myocytes from cell death induced by hypoxia | no effect
